According to patent US6797726B1, “N-alkoxyalkyl-N,N-dialkylamine derivatives or salts thereof, and remedies for nerve degeneration diseases containing the same” (Toyama Chemical Co., Ltd., priority 1999, dated 2004):

Assays:
[1] = system: cultured nerve cell death induced by Aβ; experiment: Activity of inhibiting the Aβ-induced nerve cell death (MTT assay); format: cell-based, Wistar rat; settings: 0.1 μM; Aβ (25-35) 20 μmol/L; cultured rat embryo cerebral cortex nerve cells
Description: The effect of inhibiting the death of cultured nerve cell induced by Aβ was examined by a modification of the method described in Brain Research, Vol. 639, Page 240 (1994).
(§1) Cerebral cortex excised from the brain of an embryo of Wistar rat (embryonal age 17-19 days) was cut into small pieces and then treated with trypsin to dissociate the nerve cells. The cells were spread onto a 48-well tissue-culture plate at a rate of 1×10^5 cells per well, and cultured under a condition of 5% carbon dioxide, 37° C., in a Dulbecco modified Eagle medium to which B27 additives (product of GIBCO BRL) and 3.6 mg/mL glucose were added.
When the cultured had been continued for 12-13 days, a solution of potassium chloride was added so as to give a final concentration of 25 mmol/L, immediately after which a test agent was added. Twenty four hours after addition of the test agent, Aβ (25-35 peptide residues) dissolved in distilled water was added so as to give a final concentration of 20 μmol/L. Twenty four hours after addition of Aβ, the medium was changed to a medium prepared by adding test compound to Dulbecco modified Eagle medium to which B27 and 3.6 mg/mL glucose were added.
The inhibitory activity of test agent on the cultured nerve cell death was expressed by using the activity of inhibiting the decrease of MTT reducing ability as an index. That is, 48 hours after changing the medium, MTT assay developed by Mossmann [Journal of Immunological Methods, Vol. 65, Page 55 (1983)] was carried out, and the inhibition rate (%) of the agent on the decrease of MTT assay value induced by Aβ was calculated.
Inhibition rate=[(Aβ+MTT assay value of agent−added group)−(MTT assay value of Aβ−added group)]÷[MTT assay value of no addition group−MTT assay value of Aβ−added group]×100

[2] = system: ddY male mice; experiment: Anti-hypoxic activity; format: in vivo; settings: 100 mg/kg orally, 30 minutes after administration, gas 4% oxygen / 96% nitrogen at 5 L/minute
Procedure: A test compound (100 mg/kg) dissolved in distilled water is orally administered to ddY male mice of 5-6 weeks age (6-10 heads per group). Thirty minutes after the administration, each mouse was introduced into a glass vessel, and a gas mixture consisting of 4% of oxygen and 96% of nitrogen was passed through the glass vessel at a rate of 5 L/minute. The period of the time from the beginning of sending the gas to the death of the animal was measured.
To the control group, only distilled water was orally given. Anti-hypoxic activity of test compound was calculated according to the following equation:
(Survival time of mouse in administered group)÷(Survival time of mouse in control group)×100(%)

[3] = system: sciatic nerve; experiment: Nerve-regeneration promoting activity (crushed sciatic nerve); format: in vivo; settings: 10 mg/kg intra-abdominally, 1 hour after crushing then twice per day for 5 days, SD rats, measured six days after operation
Procedure: The test was carried out according to the description of Experimental Neurology, Vol. 140, Page 198 (1996). SD rats (male, 6 weeks age, body weight 160-200 g) were anesthetized with Pentobarbital. The left sciatic nerve was exposed from the upper femoral muscular texture and peeled off from the surrounding texture, while taking care so as to give no injury to the muscular fiber. […] The crushed zone was marked with a thread at the end of neurilemma, and the operated portion was sutured. One hour after the crushing, a test compound dissolved in physiological salt solution was administered intra-abdominally at a dosage of 10 mg/kg. Thereafter, the same administration as above was repeated twice per day far 5 days. Six days after the operation, the operated portion was again opened under an anesthesia using Pentobarbital to expose the sciatic nerve, and a forceps was made to contact to the nerve from a position about 25 mm distant from the crushed part. The forceps was slowly moved toward the crushed part until a reflex reaction appeared. […] To the control group, only a saline was given. The sciatic nerve regeneration rate of the test compound was calculated according to the following equation: (Regeneration distance in administration group)÷(Regeneration distance in control group)×100(%)

[4] = system: cultured nerve cells death induced by HNE; experiment: Activity of inhibiting the HNE-induced nerve cell death (MTT assay); format: cell-based, Wistar rat; settings: 0.1 μM; HNE 25 μmol/L; cultured rat embryo cerebral cortex nerve cells; 24 hours
Description: The protecting effect against the death of cultured nerve cells induced by HNE was examined by a modification of the method described in the Journal of Neuroscience, Vol. 17, Page 5089 (1997).
as §1, with “5×10^5” for “1×10^5”, “10% fetal calf serum” for “B27 additives (product of GIBCO BRL)”
In order to inhibit the proliferation of glia cells, cytosine arabinoside was added so as to give a final concentration of 10 μmol/L, from the day one after starting the culture. When the culture had been continued for 2 days, the medium was changed to a Dulbecco modified Eagle medium to which 10% fetal calf serum and 3.6 mg/mL glucose were added. When the culture had been continued for 7-8 days, a test agent was added, after which HNE was immediately added so as to give a final concentration of 25 μmol/L.
The inhibitory activity of an agent on the cultured nerve cell death was […] by using the inhibitory activity on the depression of MTT reducing ability as an index. That is, 24 hours after addition of a test agent, MTT assay [Journal of Immunological Methods, Vol. 65, Page 55 (1983)] developed by Mossmann was carried out, based on which inhibitory rate (%) of the agent on the decrease of MTT assay induced by HNE was calculated.
Inhibitory rate=[MTT assay value of (HNE+agent)−added group)−(MTT assay value of HNE−added group)]÷(MTT assay value of no addition group−MTT assay value of HNE−added group)]×100

[5] = system: nerve cell death caused by Aβ; settings: Society for Neuroscience, Abstracts, Vol. 24, No. 1, Page 228 (1998); cited from earlier work
[6] = system: NGF; settings: WO96/12717; cited from earlier work

2-[[2-(3-Benzo[b]thiophen-5-ylpropyl)-ethyl](methyl)amino]-1-ethanol oxalate [Example 119]
Inhibition rate on the decrease of MTT assay value induced by Aβ [1]: 39%

CCN(CC)CCOCCc1ccc2sccc2c1.O=C(O)C(=O)O [Example 10]
Anti-hypoxic activity: (survival time of mouse in administered group)÷(survival time of mouse in control group)×100 [2]: 170%
Regeneration rate of sciatic nerve: (regeneration distance in administration group)÷(regeneration distance in control group)×100 [3]: 117%
Inhibitory rate on the decrease of MTT assay induced by HNE [4]: 58%

CCN(CC)CCOC[C@H](O)c1ccc2sccc2c1.Cl [Example T-588, (R)-1-(benzo[b]thiophen-5-yl)-2-[2-(N,N-diethylamino)ethoxy]ethanol hydrochloride]
Protective action on the nerve cell death caused by Aβ [5]: protective action
Activity of reinforcing the function of NGF [6]: activity of reinforcing the function of NGF

CN(CCO)CCOCCc1c(F)cc2ccsc2c1F.Cl [Example 137, 2-[{2-[2-(5,7-Difluorobenzo[b]thiophen-6-yl)ethoxy]ethyl}(methyl)amino]-1-ethanol hydrochloride]
Inhibition rate on the decrease of MTT assay value induced by Aβ [1]: 37%
melting point: 95.5 to 97.5 °C

CN(C)CCOCCc1ccc2sccc2c1.Cl [Example 16]
Anti-hypoxic activity: (survival time of mouse in administered group)÷(survival time of mouse in control group)×100 [2]: 158%
Regeneration rate of sciatic nerve: (regeneration distance in administration group)÷(regeneration distance in control group)×100 [3]: 115%

CN(CCO)CCOCCc1ccc2sccc2c1.O=C(O)C(=O)O [Example 68, 2-{[2-(2-Benzo[b]thiophen-5-ylethoxy)ethyl]-(methyl)amino}-1-ethanol oxalate]
response vs control in vivo at 100 mg/kg ([2]; Mus musculus, po, 0.5 h, read-out: Anti-hypoxic activity: (survival time of mouse in administered group)÷(survival time of mouse in control group)×100): 202%
Inhibition rate on the decrease of MTT assay value induced by Aβ [1]: 28%
Inhibitory rate on the decrease of MTT assay induced by HNE [4]: 57%

CCN(CC)CCOCCc1ccc2sc(-c3ccccc3)cc2c1.Cl [Example 27, N,N-Diethyl-N-{2-[2-(2-phenylbenzo[b]-thiophen-5-yl)ethoxy]ethyl}-amine hydrochloride]
Regeneration rate of sciatic nerve: (regeneration distance in administration group)÷(regeneration distance in control group)×100 [3]: 126%
melting point: 131 to 138 °C
